One block for each molecule: values may come before it. Calls of active or inactive are those of the source. The rule behind the calls is not given here.
Assays:
Assay type in all cases: functional
[1] = tested on: 3T3-L1; assay: Insulin sensitizing activity in mouse 3T3L1 cells assessed as triglyceride accumulation by insulin-regulated cell differentiation assay
[2] = tested on: 3T3-L1; assay: Insulin sensitizing activity in mouse 3T3L1 cells assessed as triglyceride accumulation at 1 uM by insulin-regulated cell differentiation assay relative to rosiglitazone
[3] = target: T1, Peroxisome proliferator-activated receptor gamma (Homo sapiens) (UniProt P37231); assay: Agonist activity at human PPARgamma in human U2OS cells by cell based transactivation assay relative to rosiglitazone
T1 sequence (whole entry): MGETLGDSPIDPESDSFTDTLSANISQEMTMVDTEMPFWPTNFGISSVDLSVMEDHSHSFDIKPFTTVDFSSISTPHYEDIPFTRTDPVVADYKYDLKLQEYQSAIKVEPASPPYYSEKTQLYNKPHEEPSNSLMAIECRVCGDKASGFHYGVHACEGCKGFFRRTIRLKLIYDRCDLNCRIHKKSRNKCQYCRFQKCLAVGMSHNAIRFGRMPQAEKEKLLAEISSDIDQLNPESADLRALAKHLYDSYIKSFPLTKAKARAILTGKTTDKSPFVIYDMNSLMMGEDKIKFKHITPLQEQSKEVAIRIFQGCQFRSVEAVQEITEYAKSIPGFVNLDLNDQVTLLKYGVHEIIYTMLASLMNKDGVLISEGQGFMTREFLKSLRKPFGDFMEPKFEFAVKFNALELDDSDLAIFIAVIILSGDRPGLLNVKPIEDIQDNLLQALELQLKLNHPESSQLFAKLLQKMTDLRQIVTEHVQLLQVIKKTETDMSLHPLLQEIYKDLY

[4] = target: T2, Peroxisome proliferator-activated receptor gamma (Homo sapiens, UniProt P37231); assay: Agonist activity at human PPARgamma in human U2OS cells by cell based transactivation assay
T2 sequence (P37231 whole entry): T1 sequence (whole entry)

Structure (SMILES): COC(=O)Cc1c(C)n(C(=O)c2ccc(Cl)cc2)c2ccc(OCc3ccccc3)cc12
EC30 [1]: 6.56 ×10⁻⁹ M
Activity [2]: 134%
Emax [3]: inactive
EC50 ([4]; u2os): Not Active

Structure (SMILES): CCc1ccc(CCOc2ccc3c(c2)c(CC(=O)O)c(C)n3C(=O)c2ccc(Cl)cc2)nc1
EC30 [1]: 5.89 ×10⁻⁶ M
Activity [2]: 42%

Structure (SMILES): Cc1c(CC(=O)O)c2cc(OCCN3COc4ccccc4C3=O)ccc2n1C(=O)c1ccc(Cl)cc1
Activity [2]: 41%

Structure (SMILES): CC(C)=CCC/C(C)=C/CC/C(C)=C/CCCOc1ccc2c(c1)c(CC(=O)O)c(C)n2C(=O)c1ccc(Cl)cc1
EC30 [1]: 6.92 ×10⁻⁷ M
Activity [2]: 74%

Structure (SMILES): COC(=O)Cc1c(C)n(C(=O)c2ccc(Cl)cc2)c2ccc(OCCc3nc(-c4ccc(Cl)cc4)oc3C)cc12
EC30 [1]: 2 ×10⁻⁶ M
Activity [2]: 57%

Structure (SMILES): COC(=O)Cc1c(C)n(C(=O)c2ccc(Cl)cc2)c2ccc(OCCN3CCCCC3)cc12
Activity [2]: 33%

Structure (SMILES): CN(CCOc1ccc(CC2SC(=O)NC2=O)cc1)c1ccccn1 (centres undefined) [ROSIGLITAZONE]
EC30 [1]: 1.05 ×10⁻⁷ M
Activity [2]: 100%

Emax [3]: 35%
Structure (SMILES): O=C(O)Cc1ccc(OCc2ccccc2)cc1Nc1c(Cl)cccc1Cl
EC30 [1]: 2.51 ×10⁻⁷ M
Activity [2]: 98%

Structure (SMILES): CCc1ccc(CCOc2ccc3c(c2)c(CC(=O)OC)c(C)n3C(=O)c2ccc(Cl)cc2)nc1
EC30 [1]: 1.7 ×10⁻⁶ M
Activity [2]: 50%

Structure (SMILES): COc1cccc(-c2nc(CCOc3ccc4c(c3)c(CC(=O)O)c(C)n4C(=O)c3ccc(Cl)cc3)c(C)o2)c1
EC30 [1]: 3.75 ×10⁻⁷ M
Activity [2]: 76%

Structure (SMILES): Cc1c(CC(=O)O)c2cc(OCc3ccccc3)ccc2n1C(=O)c1ccc(Cl)cc1
EC30 [1]: 9.51 ×10⁻⁹ M
Activity [2]: 126%
Emax [3]: inactive
EC50 ([4]; u2os): Not Active

Structure (SMILES): Cc1c(CC(=O)O)c2cc(OCCN3CCCCC3)ccc2n1C(=O)c1ccc(Cl)cc1
Activity [2]: 30%

Emax [3]: 134%
EC50 [4]: 0.04 µM
Structure (SMILES): Cc1oc(-c2ccc(-c3ccccc3)cc2)nc1CCOc1ccc2c(c1)c(CC(=O)O)c(C)n2C(=O)c1ccc(Cl)cc1
EC30 [1]: 3.31 ×10⁻⁸ M
Activity [2]: 129%

Structure (SMILES): COC(=O)Cc1c(C)n(C(=O)c2ccc(Cl)cc2)c2ccc(OCCc3nc(-c4cccc(OC)c4)oc3C)cc12
EC30 [1]: 3.16 ×10⁻⁷ M
Activity [2]: 85%

Structure (SMILES): COC(=O)Cc1c(C)n(C(=O)c2ccc(Cl)cc2)c2ccc(OCCN3COc4ccccc4C3=O)cc12
Activity [2]: 47%

Structure (SMILES): COC(=O)Cc1c(C)n(C(=O)c2ccc(Cl)cc2)c2ccc(OCCN3CCOCC3)cc12
Activity [2]: 42%

Emax [3]: 74%
EC50 [4]: 0.62 µM
Structure (SMILES): COC(=O)Cc1c(C)n(C(=O)c2ccc(Cl)cc2)c2ccc(OCCc3nc(-c4ccccc4)oc3C)cc12
EC30 [1]: 2.75 ×10⁻⁷ M
Activity [2]: 80%

Emax [3]: 79%
Structure (SMILES): Cc1oc(-c2ccccc2)nc1CCOc1ccc2c(c1)c(CC(=O)O)c(C)n2C(=O)c1ccc(Cl)cc1
EC30 [1]: 6.17 ×10⁻⁶ M
Activity [2]: 36%

Structure (SMILES): COC(=O)Cc1c(C)n(C(=O)c2ccc(Cl)cc2)c2ccc(OCCC/C=C(\C)CC/C=C(\C)CCC=C(C)C)cc12
EC30 [1]: 2.88 ×10⁻⁷ M
Activity [2]: 81%

Emax [3]: 141%
EC50 [4]: 0.02 µM
Structure (SMILES): COC(=O)Cc1c(C)n(C(=O)c2ccc(Cl)cc2)c2ccc(OCCc3nc(-c4ccc(-c5ccccc5)cc4)oc3C)cc12
EC30 [1]: 1.23 ×10⁻⁸ M
Activity [2]: 138%

Structure (SMILES): Cc1oc(-c2ccc(Cl)cc2)nc1CCOc1ccc2c(c1)c(CC(=O)O)c(C)n2C(=O)c1ccc(Cl)cc1
Activity [2]: 38%

Structure (SMILES): Cc1c(CC(=O)O)c2cc(OCCN3CCOCC3)ccc2n1C(=O)c1ccc(Cl)cc1
Activity [2]: 36%
